This passage reports IC50 results from ChEMBL document CHEMBL1201862, “PubChem BioAssay data set” (2004).

The IC50 is the concentration at which inhibition is half-maximal.

The assay concerns the target Envelope glycoprotein gp160 (Human immunodeficiency virus 1, UniProt Q6QLK5). The assay can be described thus: inhibitors of HIV fusion peptide binding, primary screen, biochemical, uHTS, fluorescence dequenching (AID 1986).

Activity calls are given as the source filed them. No stated cut-off is given here; in the data, actives have a measured IC50 and inactives only a lower limit.

Envelope glycoprotein gp160, sequence (Q6QLK5 whole entry, the tested form may be a part): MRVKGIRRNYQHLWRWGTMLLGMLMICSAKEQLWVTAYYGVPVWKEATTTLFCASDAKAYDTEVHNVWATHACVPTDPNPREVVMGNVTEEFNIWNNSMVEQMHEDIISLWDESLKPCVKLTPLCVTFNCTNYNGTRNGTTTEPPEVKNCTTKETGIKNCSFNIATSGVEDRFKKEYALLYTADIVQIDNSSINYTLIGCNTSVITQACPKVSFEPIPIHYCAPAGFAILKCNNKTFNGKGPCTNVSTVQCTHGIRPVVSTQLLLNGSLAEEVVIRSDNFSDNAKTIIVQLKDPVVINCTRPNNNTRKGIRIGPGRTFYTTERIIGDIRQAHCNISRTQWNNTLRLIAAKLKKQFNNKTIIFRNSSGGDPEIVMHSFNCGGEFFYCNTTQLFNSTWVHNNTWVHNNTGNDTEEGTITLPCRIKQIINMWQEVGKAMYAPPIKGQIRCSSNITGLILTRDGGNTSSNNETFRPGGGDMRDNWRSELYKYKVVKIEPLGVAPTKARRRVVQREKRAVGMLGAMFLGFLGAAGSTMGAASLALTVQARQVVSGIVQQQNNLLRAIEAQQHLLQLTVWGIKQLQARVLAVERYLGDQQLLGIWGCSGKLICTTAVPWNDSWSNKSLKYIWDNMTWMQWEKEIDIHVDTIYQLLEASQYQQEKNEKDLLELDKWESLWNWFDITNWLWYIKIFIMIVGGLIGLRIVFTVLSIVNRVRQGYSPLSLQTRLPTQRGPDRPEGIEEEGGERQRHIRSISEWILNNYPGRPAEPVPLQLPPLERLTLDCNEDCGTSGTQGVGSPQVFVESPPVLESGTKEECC

`COc1ccc(C(=O)/C=C/c2ccc(-c3ccccc3)cc2)cc1CSCC(=O)O`: the IC50 is 21.5 µM (active).
